In patent publication US8686050B2, “Diglycidic ether derivative therapeutics and methods for their use” (British Columbia Cancer Agency Branch, priority 2008, dated 2014):
Entries after “also recorded” stand apart in the source; their conditions may differ. Where a name gives a salt, the structure may show the parent alone.

Experiments:
[1] = General toxicity in xenograft-bearing mice (behavior, body weight, organ histology)
Protocol: For routine histology, major organs and xenografts were harvested upon completion of the experiment and were fixed in 10% neutral buffered formalin and then embedded in paraffin. Fixed sections were cut and stained with H&E. To determine possible effects of compounds on the proliferation rates and apoptosis in xenografts, Ki-67 immunostaining and the TUNEL assay was performed. […] Levels of AR were determined by immunohistochemistry or Western blot analysis.
LNCaP human prostate cancer cells express endogenous androgen receptor (AR) and prostate-specific antigen (PSA), and progress to androgen independence in castrated hosts. LNCaP cells (10^6/ml) were implanted subcutaneously into NOD-SCID male mice that were at least 8 weeks in age. The cells were suspended in 75 μl of RPMI medium 1640 (5% FBS) with 75 μl of Matrigel and injected into the flank region of the host under anesthesia. […] A total of five doses were given to the animal. Tumor volume and body weight were measured every 5 days.
IHC data was prepared by a commercial lab that was blinded to treatments.
PC3 cells were implanted subcutaneously into NOD-SCID male mice. […] Animals were treated every 5 days with a subcutaneous dose of 20 mg/kg body weight of PNG01-185-017-9-2 or matching volume of vehicle (control, DMSO). Tumor volume and body weight were measured every 5 days.

PSA mRNA = assay: Endogenous PSA mRNA in LNCaP cells by QRT-PCR; assay type: cell-based, human; conditions: 185-9-2 5 μg/ml, R1881 1 nM 16 hours, normalized to GAPDH mRNA
Protocol: Induction of PSA mRNA by both R1881 (ligand-dependent) and FSK (ligand-independent) in LNCaP cells is dependent upon AR (Sadar, M. D., J. Biol. Chem. 274, 7777-7783 (1999); Wang G, Jones S J, Marra M A, Sadar M D, Oncogene 2006; 25:7311-23.). To test whether the compounds have an effect on endogenous gene expression, the levels of PSA mRNA in LNCaP cells exposed to R1881 were measured. LNCaP cells (in serum-free and phenol-red free media) were incubated with compounds for 1 hour before the addition of R1881 (1 nM) for an additional 16 hours before harvesting and isolating total RNA. Levels of mRNA were measured using QPCR. Levels of PSA mRNA were normalized to levels of GAPDH mRNA.

Compound: CC(C)(c1ccc(OCC(O)CO)cc1)c1ccc(OCC(O)CCl)cc1 (centres unmarked) [185-9-2, BADGE.HCL.H2O]
- body weight, LNCaP xenograft mice, intravenous ([1]; I.V. 50 mg/kg every other day): did not reduce body weight
- body weight, LNCaP xenograft mice, intratumoral ([1]; day 0 versus day 25): did not reduce body weight
- pathology review of lung, heart, liver, spleen, and kidney ([1]; i.v. 50 mg/kg every other day, 5 injections, H&E): showed no signs of toxicity
- general toxicity indicated by animal behavior or body weight ([1]; mouse, in vivo, iv): not to cause general toxicity
- endogenous PSA mRNA induction by R1881 (PSA mRNA): to almost baseline levels; also recorded: inhibited endogenous PSA gene expression
